Experiments:
[1] = test system: B cells; experiment: Phage binding by flow cytometry; set-up: species or system human
Protocol: (§1) In brief, aliquots of DCs (10^5) were divided into conical 96-well micro-plate, washed with PBS buffer containing 1% FCS, and then incubated with the amplified phages (≈10^9 TU) for 30-60 min on ice. After washing, cells were incubated with biotinylated anti-M13 monoclonal antibody (Abcam) and then with phycoerythrin (PE)-conjugated streptavidin. Competition assays were performed by pre-incubating DCs with different amounts of the peptides for 15 min on ice. Then NW phage (≈10^9 TU) was added and samples incubated for additional 60 min on ice. After washing, bound phages were detected as indicated above. Samples were analyzed by FACSCanto II flow cytometry.

[2] = test system: Blood myeloid DCs; experiment: Phage binding by flow cytometry; set-up: species or system human
Protocol: as §1

[3] = test system: Blood pDCs; experiment: Phage binding by flow cytometry; set-up: species or system human
Protocol: as §1

[4] = test system: Cancer cell lines (MCF-7, MDA-MB 231, SW480, REH); experiment: Phage binding by flow cytometry; set-up: species or system human; conditions: all tested cancer cell lines
Protocol: as §1

[5] = test system: Monocytes; experiment: Phage binding by flow cytometry; set-up: species or system human
Protocol: as §1

[6] = test system: NK cells; experiment: Phage binding by flow cytometry; set-up: species or system human
Protocol: as §1

[7] = test system: T cells; experiment: Phage binding by flow cytometry; set-up: species or system human
Protocol: as §1

[8] = test system: iDCs; experiment: Phage binding by flow cytometry; set-up: species or system human
Protocol: as §1

[9] = test system: mDCs; experiment: Phage binding by flow cytometry; set-up: species or system human
Protocol: as §1

[10] = test system: THP-1; experiment: Phage binding by flow cytometry; conditions: human monocyte cell line THP-1
Protocol: as §1

[11] = test system: DCs; experiment: Fluorescence microscopy analysis of phage binding and internalization; assay type: cell-based, human; conditions: 37° C. for 90 min
Protocol: DCs were incubated with biotinylated phages at 4° C. for 30 min. After washing, the cells were incubated with streptavidin-PE. […] Hoechst 33342 dye was added to the cells for 5 min and then the cells were washed, fixed with 4% paraformaldehyde, and covered with Dako cytomation fluorescent mounting medium and analyzed with epifluorescence microscopy. Confocal images were obtained using an AxioVert 200 microscope (Carl Zeiss, Jena, Germany).

[12] = test system: iDCs
Protocol: Commercially available streptavidin-PE (1/200) was incubated with biotinylated NW peptide or control peptide (1 μg/ml) for 30 min at RT. Then the mixtures were added to DCs growing in Lab-Tek chamber slides (Nalge Nunc International, Naperville, USA) and incubated for 60 min at 4° C. The cells were washed 3 times with medium and incubated at 37° C. for 90 min to allow internalization of bound streptavidin-PE. To visualize the nuclei, Hoechst 33342 (Invitrogen Dynal AS, Oslo, Norway) was added to the cells for 5 min. Subsequently, the cells were fixed with 4% paraformaldehyde, washed and slides were covered with Dako cytomation fluorescent mounting medium followed by epifluorescence microscopy analysis. Confocal images were taken with an AxioVert 200 microscope (Carl Zeiss, Jena, Germany).
The use of the NW peptide to target antigens to DCs was assessed by examining its ability to promote the binding and uptake of streptavidin-PE complexes. For these experiments, streptavidin-PE was pre-incubated with either biotin conjugated NW peptide or biotin conjugated control peptide and then the mixtures were added to iDCs growing in Lab-Tek chamber slides, incubated at 4° C., washed and then transferred at 37° C.

[13] = test system: Monocytes; conditions: biotin labeled peptide (10 μg), Dynabeads M-280 streptavidin, flow cytometry
Protocol: In these experiments, peripheral blood mononuclear cells were isolated from buffy coats of healthy donors by density gradient centrifugation. […] Subsequently, the cells were washed with the binding buffer to remove unbound peptide and then they were suspended in 100 μl binding buffer. Subsequently, pre-washed Dynabeads M-280 streptavidin (20 μl) were added and the mixtures were incubated for 15 min at room temperature with agitation. After, the mixtures were placed in the separation magnet, during which time the beads and any attached cells are drawn to one side of the tube. Non-attached cells were carefully aspirated off and analyzed by flow cytometry to check the removal of the monocyte fraction (FIG. 15).

[14] = biological target: NW peptide receptor (human); experiment: competition with NW phage on monocytes, flow cytometry
[15] = biological target: NW peptide receptor (human); experiment: competition with NW phage on monocytes, flow cytometry; C3 = 8 µM peptide

## NWYLPWLGTNDW [DC2]
[1]
  phage binding: did not bind
[2]; Blood myeloid DCs
  Phage Binding: ++++ (Binding >80-100%: ++++)
[2]; blood CD1c+ myeloid DCs
  phage binding: bound
[3]; Blood pDCs
  Phage Binding: ++++ (Binding >80-100%: ++++)
[3]; CD303+ plasmacytoid DCs
  phage binding: bound
[4]
  phage binding: did not bind
[5]
  Phage Binding: ++++ (Binding >80-100%: ++++)
  phage binding: strong binding
[6]
  phage binding: did not bind
[7]
  phage binding: did not bind
[8]; Trypsine treatment of DCs, data not shown
  phage binding after trypsine treatment of DCs: eliminated phage binding
[8]; binding of the phage clones to iDC, flow cytometry
  Binding: ++++ (Binding >80-100%: ++++)
[8]; iDC
  phage binding: strong binding
[8]; iDCs
  Phage Binding: ++++ (Binding >80-100%: ++++)
[9]
  Phage Binding: ++++ (Binding >80-100%: ++++)
  phage binding: strong binding
[10]
  phage binding: did not bind
[11]
  internalization of the phage particles into DCs: able to mediate the internalization of the phage particles into DCs

## NWYLPWLGTNDWGGGK-Biotin [NW-Biotin peptide]
[12]; biotinylated peptide pre-incubated with streptavidin-PE, 4° C.
  binding of streptavidin-PE complexes to DCs: mediated the binding of streptavidin-PE complexes to DCs
[12]; confocal microscopy, after transfer to 37° C.
  internalization of streptavidin-PE: clear internalization and cellular localization of streptavidin-PE molecules
[13]
  removal of the monocyte fraction from PBMC: most, if not all monocyte population were removed

## NWYLPWLGTW [NW peptide with deletion of N10D11]
[14]
  fold reduction in IC50 against the NW peptide: 20 fold

## NWYLPWLGTAAW [N10D11 double mutant]
[15]
  mean fluorescence of bound NW phage at C3 concentration: 250
